The results in this text go back to ChEMBL document CHEMBL4118089, “Pyrazine Analogs for the Treatment of Protozoal Infections” (ACS Med Chem Lett, 2017).

Assay [1] concerns Plasmodium falciparum. As to the kind of experiment: Antiplasmodial activity against Plasmodium falciparum. Format: functional, organism-based.
Assay [2] concerns Plasmodium falciparum. The assay is described as follows: Antiplasmodial activity against Plasmodium falciparum infected in mouse. Type of assay: functional.

Take `O=C(c1ccc(-c2cncc(-c3cncc(F)c3)n2)cc1)N1CCNCC1`: the IC50 (commonly the concentration that inhibits the measured activity by half) with Plasmodium falciparum [1] was found to be 0.025 µM. For the same molecule, in the assay with Plasmodium falciparum [2], the ED90 was determined as 1.5 mg/kg.
The like results for `Cc1cncc(-c2cncc(-c3ccc(C(=O)N4CCNCC4)cc3)n2)c1` were, in that order, 0.035 µM and 2.2 mg/kg.
